13 compounds from patent publication US20240417387A1, “SULFONYLPIPERAZINYL COMPOUNDS FOR TREATMENT OF BACTERIAL INFECTIONS” (Hoffmann-La Roche Inc., priority 2021, published 2024) can be followed below.

Values after ≈ are worked out from the molar mass of the structure shown.

Series [1] relates to Escherichia coli BW 25113. As to the kind of experiment: Minimal Inhibitory Concentration (MIC) broth dilution assay, E. coli BW 25113. Format: cell-based. Conditions: Escherichia coli, BW25113, 20 hours at 35° C., CAMHB, read-out: MIC E. coli K-12 BW 25113. In a few lines: (§1)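 Broth microdilution with twofold compound series in cation-adjusted Mueller Hinton broth, inoculum 5×10^5 CFU/mL, applied to each strain. Plates incubated 20 h at 35 °C in ambient air. MIC […] recorded as the lowest concentration with no visible growth, read by eye.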
(Broth dilution looks for growth in wells or tubes with falling amounts of substance.)

Series [2] has as its system Escherichia coli ATCC 25922. As to the kind of experiment: Minimal Inhibitory Concentration (MIC) broth dilution assay, E. coli ATCC 25922. Conditions: Escherichia coli, ATCC25922, 20 h, read-out: MIC E. coli ATCC 25922. Format: cell-based. In a few lines: as §1
Series [3] relates to Klebsiella pneumonia ATCC 43816. As to the kind of experiment: Minimal Inhibitory Concentration (MIC) broth dilution assay, K. pneumonia ATCC 43816. It counts as cell-based. As to conditions: Klebsiella pneumoniae, ATCC43816, 20 hours at 35° C., CAMHB, read-out: MIC K. p ATCC 43816. In a few lines: as §1
Series [4] concerns the target Escherichia coli UDP-2,3-diacylglucosamine hydrolase (LpxH) (Escherichia coli (strain K12), UniProt P43341). As to the kind of experiment: Enzymatic IC50 assay of Escherichia coli LpxH (UMP/CMP-Glo luminescence). As to conditions: Enzymatic IC50 against Escherichia coli LpxH; read-out: IC50 (converted). Format: biochemical. On the procedure:
The inhibitory potency of compounds of Escherichia coli UDP-2,3-diacylglucosamine hydrolase (LpxH) was determined in an enzymatic assay. UDP-2,3-diacylglucosamine (UDP-DAG) was purified from the Caulobacter crescentus LpxI D225A mutant protein that contained a tightly bound UDP-DAG molecule. The enzyme was diluted using assay buffer containing 50 mM NaCl, 20 mM Tris-HCl pH7.5, 2.5 mM MnCl2, 0.01% Triton X-100.1 mg/mL BSA, and the final concentration is 2 nM. The compounds were diluted by Agilent liquid handler Bravo, the compound's serial dilution dose ranges from 100 μM to 1.7 nM. Then the enzyme and compounds mixture were incubated at room temperature for 10 mins. The enzymatic assay was started by adding UDP-DAG (FAC is 5 μM) and incubated for 20 mins at room temperature. The plate was then heated to 95° C. for 15 mins on a water batch to stop the reaction. The hydrolysis of UDP-DAG by LpxH yielded 2,3-diacylglucosamine 1-phosphate (lipid X) and UMP, which was converted to ATP and quantified by the luciferase reaction using the UMP/CMP-Glo™ Glycosyltransferase Assay kit from Promega. The compound's inhibitory effect of LpxH is determined by measuring the light change using a luminometer (Envision).

Series [5] can be described thus: Human microsome stability assay. Format: in vitro ADME. Conditions: human liver microsomes 0.5 mg/mL, 37° C., pH 7.4, NADPH regenerating system. A digest of the protocol:
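Compound […] with 0.5 mg/mL human liver microsomal protein in 100 mM potassium phosphate pH 7.4, 10 min preincubation at 37 °C, started with NADPH regenerating system. Sampled 0–30 min, remaining compound by LC-MS/MS; clearance binned low <7, medium 7–16.2, high >16.2 mL/min/kg.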
(Liver microsomes are a subcellular fraction often used to study metabolism.)

Escherichia coli UDP-2,3-diacylglucosamine hydrolase (LpxH), sequence (P43341 whole entry): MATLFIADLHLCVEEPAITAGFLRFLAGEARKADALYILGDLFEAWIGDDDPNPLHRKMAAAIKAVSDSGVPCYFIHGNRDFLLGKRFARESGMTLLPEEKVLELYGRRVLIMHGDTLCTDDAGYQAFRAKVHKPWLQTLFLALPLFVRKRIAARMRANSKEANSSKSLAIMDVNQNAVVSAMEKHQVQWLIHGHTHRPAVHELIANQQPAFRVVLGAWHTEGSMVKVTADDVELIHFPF

The term MIC denotes the lowest concentration that inhibits growth of the organism. What is called IC50 is the concentration needed to halve the response being measured. Consider `CC(CN)NC(=O)[C@H]1CC[C@H](C(F)(F)c2cc(Cl)nc(N3CCN(S(=O)(=O)c4ccc(N5C[C@H](N)CC5=O)cc4)CC3)c2)CC1` (stereo partly drawn) [Example 008, Trans-N-(2-amino-1-methyl-ethyl)-4-[[2-chloro-6-[4-[4-[(4R)-4-amino-2-oxo-pyrrolidin-1-yl]phenyl]sulfonylpiperazin-1-yl]-4-pyridyl]-difluoro-methyl]cyclohexanecarboxamide], for which the minimum inhibitory concentration (MIC) in series [1] came out at 1 µg/mL (≈ 1.5 µM); in series [2], 0.52 µg/mL (≈ 0.778 µM); in series [3], 0.52 µg/mL (≈ 0.778 µM). Moreover, the IC50 in series [4] is 5.99 nM. Besides, the “Clearance of Human microsome” value in series [5] is 8.07 mL/min/kg.
With `N[C@@H]1CC(=O)N(c2ccc(S(=O)(=O)N3CCN(c4cc(C(F)(F)[C@H]5CC[C@H](C(=O)NCCN6CCCC6)CC5)cc(Cl)n4)CC3)cc2)C1` [Example 009, Trans-4-[[2-chloro-6-[4-[4-[(4R)-4-amino-2-oxo-pyrrolidin-1-yl]phenyl]sulfonylpiperazin-1-yl]-4-pyridyl]-difluoro-methyl]-N-(2-pyrrolidin-1-ylethyl)cyclohexanecarboxamide], the MIC in series [1], in series [2] and in series [3] was 1.5 µg/mL (≈ 2.12 µM) throughout. The IC50 in series [4] was less than 2.82 nM. In addition, in series [5], the “Clearance of Human microsome” value turned out to be 11.13 mL/min/kg.
For the compound `NCC1(NC(=O)[C@H]2CC[C@H](C(F)(F)c3cc(Cl)nc(N4CCN(S(=O)(=O)c5ccc(N6C[C@H](N)CC6=O)cc5)CC4)c3)CC2)CC1` [Example 012, Trans-N-[1-(aminomethyl)cyclopropyl]-4-[[2-[4-[4-[(4R)-4-amino-2-oxo-pyrrolidin-1-yl]phenyl]sulfonylpiperazin-1-yl]-6-chloro-4-pyridyl]-difluoro-methyl]cyclohexanecarboxamide], the minimum inhibitory concentration (MIC) in series [1], in series [2] and in series [3] was 0.57 µg/mL (≈ 0.838 µM) each time. For the same compound, in series [4], the IC50 is 2.94 nM. Moreover, the “Clearance of Human microsome” value in series [5] was determined as 6.19 mL/min/kg.
In the case of `NCCN1CCN(C(=O)[C@H]2CC[C@H](C(F)(F)c3cc(Cl)nc(N4CCN(S(=O)(=O)c5ccc(N6C[C@H](N)CC6=O)cc5)CC4)c3)CC2)CC1` [Example 013, Trans-(4R)-4-amino-1-[4-[4-[4-[[4-[4-(2-aminoethyl)piperazine-1-carbonyl]cyclohexyl]-difluoro-methyl]-6-chloro-2-pyridyl]piperazin-1-yl]sulfonylphenyl]pyrrolidin-2-one], the MIC came out at 2.6 µg/mL (≈ 3.59 µM) in series [1], 2.6 µg/mL (≈ 3.59 µM) in series [2] and 1.3 µg/mL (≈ 1.8 µM) in series [3]. Also, the IC50 in series [4] was 4.15 nM. Also, the “Clearance of Human microsome” value in series [5] amounted to 6.77 mL/min/kg.
Regarding `NC(=O)[C@H]1CC[C@H](C(F)(F)c2cc(Cl)nc(N3CCN(S(=O)(=O)c4ccc(N5C[C@H](N)CC5=O)cc4)CC3)c2)CC1` [Example 014], the MIC in series [1], in series [2] and in series [3] was 1.1 µg/mL (≈ 1.8 µM) throughout. Besides, the IC50 in series [4] was less than 3.27 nM. Moreover, the “Clearance of Human microsome” value in series [5] was determined as 6.15 mL/min/kg.
On to `CN(C)CCCNC(=O)c1ccc(C(F)(F)c2cc(Cl)nc(N3CCN(S(=O)(=O)c4ccc(N5C[C@H](N)CC5=O)cc4)CC3)c2)cc1` [Example 020, 4-[[2-chloro-6-[4-[4-[(4R)-4-amino-2-oxo-pyrrolidin-1-yl]phenyl]sulfonylpiperazin-1-yl]-4-pyridyl]-difluoro-methyl]-N-[3-(dimethylamino)propyl]benzamide], for which the MIC in series [1], in series [2] and in series [3] was 0.72 µg/mL (≈ 1.04 µM) in each case. The IC50 in series [4] is 2.9 nM. In addition, the “Clearance of Human microsome” value in series [5] was found to be 9.48 mL/min/kg.
Consider `NCCCNC(=O)c1cnc(C(F)(F)c2cc(Cl)nc(N3CCN(S(=O)(=O)c4ccc(N5C[C@H](N)CC5=O)cc4)CC3)c2)cn1` [Example 021, N-(3-aminopropyl)-5-[[2-chloro-6-[4-[4-[(4R)-4-amino-2-oxo-pyrrolidin-1-yl]phenyl]sulfonylpiperazin-1-yl]-4-pyridyl]-difluoro-methyl]pyrazine-2-carboxamide], for which the MIC in series [1] was found to be 2.2 µg/mL (≈ 3.31 µM); in series [2] it was 1.3 µg/mL (≈ 1.96 µM); in series [3] it was 1.8 µg/mL (≈ 2.71 µM). Moreover, in series [4], the IC50 was 3.01 nM. Besides, the “Clearance of Human microsome” value in series [5] is listed as 10.85 mL/min/kg.
Regarding `NCC(O)CNC(=O)c1cnc(C(F)(F)c2cc(Cl)nc(N3CCN(S(=O)(=O)c4ccc(N5C[C@H](N)CC5=O)cc4)CC3)c2)cn1` (stereo partly drawn) [Example 022, N-(3-amino-2-hydroxy-propyl)-5-[[2-chloro-6-[4-[4-[(4R)-4-amino-2-oxo-pyrrolidin-1-yl]phenyl]sulfonylpiperazin-1-yl]-4-pyridyl]-difluoro-methyl]pyrazine-2-carboxamide], the MIC stood at 1.4 µg/mL (≈ 2.06 µM) in series [1], 0.71 µg/mL (≈ 1.04 µM) in series [2] and 0.71 µg/mL (≈ 1.04 µM) in series [3]. Moreover, in series [4], the IC50 is 5.88 nM. Besides, the “Clearance of Human microsome” value in series [5] came out at 6.15 mL/min/kg.
`CN(C)CCCNC(=O)c1cnc(C(F)(F)c2cc(Cl)nc(N3CCN(S(=O)(=O)c4ccc(N5C[C@H](N)CC5=O)cc4)CC3)c2)cn1` [Example 023, 5-[[2-chloro-6-[4-[4-[(4R)-4-amino-2-oxo-pyrrolidin-1-yl]phenyl]sulfonylpiperazin-1-yl]-4-pyridyl]-difluoro-methyl]-N-[3-(dimethylamino)propyl]pyrazine-2-carboxamide]: the MIC worked out at 1.4 µg/mL (≈ 2.02 µM) in series [1], 1.4 µg/mL (≈ 2.02 µM) in series [2] and 2.9 µg/mL (≈ 4.19 µM) in series [3]. Besides, the IC50 in series [4] was less than 2.89 nM. Further, the “Clearance of Human microsome” value in series [5] is 6.15 mL/min/kg.
On to `NCCNC(=O)c1cnc(C(F)(F)c2cc(Cl)nc(N3CCN(S(=O)(=O)c4ccc(N5C[C@H](N)CC5=O)cc4)CC3)c2)cn1` [Example 024, N-(2-aminoethyl)-5-[[2-chloro-6-[4-[4-[(4R)-4-amino-2-oxo-pyrrolidin-1-yl]phenyl]sulfonylpiperazin-1-yl]-4-pyridyl]-difluoro-methyl]pyrazine-2-carboxamide], for which the MIC in series [1], in series [2] and in series [3] was 0.69 µg/mL (≈ 1.06 µM) in each case. Further, the IC50 in series [4] is 4.61 nM. In addition, the “Clearance of Human microsome” value in series [5] was 11.22 mL/min/kg.
In the case of `NCCCNC(=O)c1ccc(C(F)(F)c2cc(Cl)nc(N3CCN(S(=O)(=O)c4ccc(N5C[C@H](N)CC5=O)cc4)CC3)c2)nc1` [Example 026, N-(3-aminopropyl)-6-[[2-chloro-6-[4-[4-[(4R)-4-amino-2-oxo-pyrrolidin-1-yl]phenyl]sulfonylpiperazin-1-yl]-4-pyridyl]-difluoro-methyl]pyridine-3-carboxamide], the MIC in series [1], in series [2] and in series [3] was 0.78 µg/mL (≈ 1.18 µM) each time. In series [4], the IC50 was 10.6 nM. Moreover, the “Clearance of Human microsome” value in series [5] came to 6.15 mL/min/kg.
Consider `CN(C)CCCNC(=O)c1ccc(C(F)(F)c2cc(Cl)nc(N3CCN(S(=O)(=O)c4ccc(N5C[C@H](N)CC5=O)cc4)CC3)c2)nc1` [Example 027, 6-[[2-chloro-6-[4-[4-[(4R)-4-amino-2-oxo-pyrrolidin-1-yl]phenyl]sulfonylpiperazin-1-yl]-4-pyridyl]-difluoro-methyl]-N-[3-(dimethylamino)propyl]pyridine-3-carboxamide], for which the figures for the minimal inhibitory concentration (MIC) in series [1], in series [2] and in series [3] were 1.6 µg/mL (≈ 2.31 µM), 3.2 µg/mL (≈ 4.63 µM) and 3.2 µg/mL (≈ 4.63 µM), respectively. Besides, the IC50 in series [4] is 5.79 nM. The “Clearance of Human microsome” value in series [5] worked out at 6.15 mL/min/kg.
`CNCCCNC(=O)c1ccc(C(F)(F)c2cc(Cl)nc(N3CCN(S(=O)(=O)c4ccc(N5C[C@H](N)CC5=O)cc4)CC3)c2)cn1` [Example 029, 5-[[2-chloro-6-[4-[4-[(4R)-4-amino-2-oxo-pyrrolidin-1-yl]phenyl]sulfonylpiperazin-1-yl]-4-pyridyl]-difluoro-methyl]-N-[3-(methylamino)propyl]pyridine-2-carboxamide]: the MIC was found to be 2.8 µg/mL (≈ 4.13 µM) in series [1], 1.4 µg/mL (≈ 2.07 µM) in series [2] and 1.4 µg/mL (≈ 2.07 µM) in series [3]. For the same compound, in series [4], the IC50 is 2.95 nM. In addition, the “Clearance of Human microsome” value in series [5] was 7.22 mL/min/kg.
